Experiments:
Type in all cases: biochemical
CDK2/CyclinA2 = molecular target: T1, CDK2/CyclinA2 (Homo sapiens, UniProt P24941); assay: CDK2/CyclinA2 ChEF Assay (AQT, Table C); conditions: 10xKm; for Ki: AQT ChEF, read-out: CDK2/CCNA2 AQT10xKm Ki: Average Ki; for CDK2/CCNA2 AQT10xKm Ki: CDK2/A2 Selectivity over CDK1/B1 / CDK2/CCNA2 AQT10xKm Ki: CDK2/A2 selectivity over CDK4/D1 / CDK2/CCNA2 AQT10xKm Ki: CDK2/A2 selectivity over CDK6/D3 / CDK2/CCNA2 AQT10xKm Ki: CDK2/A2 Selectivity over CDK9: AQT
T1 construct: Wild-type, full length CDK2 in complex with wildtype, full length CyclinA2: Carna Cat #04-103; purchased Carna 04-103
Method: 16 nL of 1000× compound in 100% DMSO is added to a 384-well low volume, black assay plate. 12 μL of 1.3×CDK2/CyclinA2 (Wild-type, full length CDK2 in complex with wildtype, full length CyclinA2: Carna Cat #04-103 diluted in assay buffer (54 mM Hepes, 0.012% Brij-35, 10 mM MgCl2, 0.55 mM EGTA, 1% Glycerol, 0.02% BSA, and 1.2 mM DTT) is added to the plates on top of the compound and pre-incubated for 30 minutes at room temperature. Following the incubation, 4 uL of 4×Sox-chromophore (CSox) labeled peptide substrate (AQT0297, AssayQuant) & ATP diluted in assay buffer is added to the plate to initiate the reaction. The assay is incubated at room temperature for 90 min after initiation. The CSox peptide substrate is phosphorylated by CDK2/A2 upon ATP hydrolysis.
(§1) The fluorescent intensity measurement of the assay plate is read on a microplate reader once the assay is initiated and again at the completion of the assay. Phosphorylation of the CSox-based peptide substrate sensor results in an immediate increase in fluorescence. These raw fluorescence intensity values are normalized to calculate percent inhibition, which are fit to a four-parameter logistic curve and IC50 values are calculated. IC50 values are converted to Ki using substrate, KM^app values, and the Cheng-Prusoff equation.

CDK4/CyclinD1 = molecular target: T2, CDK4/CyclinD1 (Homo sapiens, UniProt P11802); assay: CDK4/CyclinD1 ChEF Assay (AQT, Table C); conditions: read-out: CDK4/CCND1 AQT Ki: Average Ki
T2 construct: Wild-type, full length CDK4 in complex with wildtype, CyclinD1: ThermoFisher Cat #PR8064A; purchased ThermoFisher PR8064A
Method: 16 nL of 1000× compound in 100% DMSO is added to a 384-well low volume, black assay plate. 12 μL of 1.3×CDK4/CyclinD1 (Wild-type, full length CDK4 in complex with wildtype, CyclinD1: ThermoFisher Cat #PR8064A) diluted in assay buffer (54 mM Hepes, 0.012% Brij-35, 10 mM MgCl2, 0.55 mM EGTA, 1% Glycerol, 0.02% BSA, and 1.2 mM DTT) is added to the plates on top of the compound and pre-incubated for 30 minutes at room temperature. Following the incubation, 4 uL of 4×Sox-chromophore (CSox) labeled peptide substrate (AQT0258, AssayQuant) & ATP diluted in assay buffer is added to the plate to initiate the reaction. The assay is incubated at room temperature for 150 min after initiation. The CSox peptide substrate is phosphorylated by CDK4/D1 upon ATP hydrolysis.
as §1, with “KM^ap” for “KM^app”

CDK6/CyclinD3 = molecular target: T3, CDK6/CyclinD3 (Homo sapiens, UniProt Q00534); assay: CDK6/CyclinD3 ChEF Assay (AQT, Table C); conditions: read-out: CDK6/CCND3 AQT Ki: Average Ki
T3 construct: Wild-type, full length CDK6 in complex with wildtype, full length CyclinD3: Carna Cat #04-107; purchased Carna 04-107
Method: 16 nL of 1000× compound in 100% DMSO is added to a 384-well low volume, black assay plate. 12 μL of 1.3×CDK6/CyclinD3 (Wild-type, full length CDK6 in complex with wildtype, full length CyclinD3: Carna Cat #04-107) diluted in assay buffer (54 mM Hepes, 0.012% Brij-35, 10 mM MgCl2, 0.55 mM EGTA, 1% Glycerol, 0.02% BSA, and 1.2 mM DTT) is added to the plates on top of the compound and pre-incubated for 30 minutes at room temperature. Following the incubation, 4 uL of 4×Sox-chromophore (CSox) labeled peptide substrate (AQT0258, AssayQuant) & ATP diluted in assay buffer is added to the plate to initiate the reaction. The assay is incubated at room temperature for 300 min after initiation. The CSox peptide substrate is phosphorylated by CDK6/D3 upon ATP hydrolysis.
as §1

CDK9/CyclinT1 = CDK9/CyclinT1 (Homo sapiens, UniProt P50750); assay: CDK9/CyclinT1 ChEF Assay (AQT, Table C); set-up: Wild-type, full length CDK9 in complex with wildtype, CyclinT1 (1-259): Biortus Cat #BP480/792/691; purchased Biortus BP480/792/691; conditions: 10XKm
Method: 16 nL of 1000× compound in 100% DMSO is added to a 384-well low volume, black assay plate. 12 μL of 1.3×CDK9/CyclinT1 (Wild-type, full length CDK9 in complex with wildtype, CyclinT1 (1-259): Biortus Cat #BP480/792/691) diluted in assay buffer (54 mM Hepes, 0.012% Brij-35, 10 mM MgCl2, 0.55 mM EGTA, 1% Glycerol, 0.02% BSA, and 1.2 mM DTT) is added to the plates on top of the compound and pre-incubated for 30 minutes at room temperature. Following the incubation, 4 μL of 4×Sox-chromophore (CSox) labeled peptide substrate (AQT0449, AssayQuant) & ATP diluted in assay buffer is added to the plate to initiate the reaction. The assay is incubated at room temperature for 180 min after initiation. The CSox peptide substrate is phosphorylated by CDK9/T1 upon ATP hydrolysis.
as §1

Chain of CDK9/CyclinT1 (P50750 whole entry): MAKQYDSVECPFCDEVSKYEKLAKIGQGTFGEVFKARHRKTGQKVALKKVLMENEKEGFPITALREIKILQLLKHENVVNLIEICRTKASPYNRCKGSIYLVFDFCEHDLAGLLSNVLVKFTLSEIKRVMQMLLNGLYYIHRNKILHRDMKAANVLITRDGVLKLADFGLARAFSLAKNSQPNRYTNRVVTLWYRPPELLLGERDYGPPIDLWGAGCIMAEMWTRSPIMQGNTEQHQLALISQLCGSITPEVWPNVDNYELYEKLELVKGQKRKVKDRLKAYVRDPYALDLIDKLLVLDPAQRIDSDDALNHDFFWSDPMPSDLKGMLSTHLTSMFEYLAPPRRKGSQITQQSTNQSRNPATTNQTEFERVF
Chain of CDK9/CyclinT1 (O60563 1-259 partner limits assumed): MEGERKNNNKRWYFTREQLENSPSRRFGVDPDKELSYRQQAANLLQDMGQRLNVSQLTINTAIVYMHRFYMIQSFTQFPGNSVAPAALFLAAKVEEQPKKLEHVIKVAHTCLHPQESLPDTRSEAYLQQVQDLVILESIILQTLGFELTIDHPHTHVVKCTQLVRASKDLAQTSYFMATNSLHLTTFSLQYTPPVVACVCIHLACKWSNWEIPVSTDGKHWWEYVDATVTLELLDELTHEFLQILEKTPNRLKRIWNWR
T3 sequence (Q00534 whole entry): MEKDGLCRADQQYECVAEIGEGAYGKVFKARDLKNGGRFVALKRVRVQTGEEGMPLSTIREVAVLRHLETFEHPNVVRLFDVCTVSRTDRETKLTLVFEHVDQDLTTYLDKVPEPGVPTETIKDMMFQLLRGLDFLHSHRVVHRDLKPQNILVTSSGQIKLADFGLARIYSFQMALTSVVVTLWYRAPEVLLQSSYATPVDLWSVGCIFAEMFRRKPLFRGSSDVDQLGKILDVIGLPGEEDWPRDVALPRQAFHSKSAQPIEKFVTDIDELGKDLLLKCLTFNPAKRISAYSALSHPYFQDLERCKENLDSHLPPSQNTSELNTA
T3 sequence (P30281 whole entry partner): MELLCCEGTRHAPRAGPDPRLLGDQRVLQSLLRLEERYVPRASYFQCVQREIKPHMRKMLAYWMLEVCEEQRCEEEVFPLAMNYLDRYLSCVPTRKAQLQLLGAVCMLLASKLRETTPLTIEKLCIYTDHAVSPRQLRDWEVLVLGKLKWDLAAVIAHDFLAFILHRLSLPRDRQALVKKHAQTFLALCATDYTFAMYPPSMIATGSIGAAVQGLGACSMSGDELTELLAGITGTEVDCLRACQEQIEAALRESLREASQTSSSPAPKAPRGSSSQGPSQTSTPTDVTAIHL
T2 sequence (P11802 whole entry): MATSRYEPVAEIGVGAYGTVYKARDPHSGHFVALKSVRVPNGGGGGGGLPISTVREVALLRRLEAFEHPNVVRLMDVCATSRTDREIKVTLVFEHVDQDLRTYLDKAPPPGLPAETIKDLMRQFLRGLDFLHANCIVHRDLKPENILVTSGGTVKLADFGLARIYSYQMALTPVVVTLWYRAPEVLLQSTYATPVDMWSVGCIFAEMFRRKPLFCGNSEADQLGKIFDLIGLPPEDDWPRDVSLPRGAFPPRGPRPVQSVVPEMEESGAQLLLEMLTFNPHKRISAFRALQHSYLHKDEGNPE
T2 sequence (P24385 whole entry partner): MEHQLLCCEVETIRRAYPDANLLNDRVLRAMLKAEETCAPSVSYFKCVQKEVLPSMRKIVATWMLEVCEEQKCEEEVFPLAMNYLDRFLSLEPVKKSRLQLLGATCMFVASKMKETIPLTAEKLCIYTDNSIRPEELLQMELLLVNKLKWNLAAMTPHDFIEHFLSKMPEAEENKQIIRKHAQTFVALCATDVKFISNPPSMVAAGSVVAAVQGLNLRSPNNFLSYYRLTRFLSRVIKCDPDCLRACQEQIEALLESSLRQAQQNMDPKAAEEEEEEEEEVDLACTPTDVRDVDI

## NS(=O)(=O)c1ccc2cc1OCCCCCNC(=O)O[C@@H]1CC[C@@H](C1)c1cnc(nc1)N2 (stereo in doubt) [Compound 105, rel-(2S,5R)-7-oxo-6,14-dioxa-8,20,22,25-tetraazatetracyclo[19.2.2.1^{2,5}.1^{15,19}]heptacosa-1(23),15,17,19(26),21,24-hexaene-16-sulfonamide]
CDK2/CyclinA2
  Ki: < 0.001 µM
  CDK2/CCNA2 AQT10xKm Ki: CDK2/A2 Selectivity over CDK1/B1: A (A>10)
  CDK2/CCNA2 AQT10xKm Ki: CDK2/A2 selectivity over CDK4/D1: A (A>10)
  CDK2/CCNA2 AQT10xKm Ki: CDK2/A2 selectivity over CDK6/D3: A (A>10)
  CDK2/CCNA2 AQT10xKm Ki: CDK2/A2 Selectivity over CDK9: A (A>10)
CDK4/CyclinD1
  Ki: ≥ 0.1 µM
CDK6/CyclinD3
  Ki: ≥ 0.1 µM
CDK9/CyclinT1
  Ki: 0.025 to 0.1 µM

## O=C1NCCCCCCNS(=O)(=O)c2ccc(c(F)c2)Nc2cc([nH]n2)[C@H]2CC[C@H](C2)O1 [Compound 91, (1^1S,1^3R,Z)-4^2-fluoro-2^1H-15-oxa-5-thia-3,6,13-triaza-2(5,3)-pyrazola-4(1,4)-benzena-1(1,3)-cyclopentanacyclopentadecaphan-14-one 5,5-dioxide]
CDK2/CyclinA2
  Ki: < 0.001 µM
  CDK2/CCNA2 AQT10xKm Ki: CDK2/A2 Selectivity over CDK1/B1: A (A>10)
  CDK2/CCNA2 AQT10xKm Ki: CDK2/A2 selectivity over CDK4/D1: A (A>10)
  CDK2/CCNA2 AQT10xKm Ki: CDK2/A2 selectivity over CDK6/D3: A (A>10)
  CDK2/CCNA2 AQT10xKm Ki: CDK2/A2 Selectivity over CDK9: A (A>10)
CDK4/CyclinD1
  Ki: ≥ 0.1 µM
CDK6/CyclinD3
  Ki: ≥ 0.1 µM
CDK9/CyclinT1
  Ki: 0.025 to 0.1 µM

## O=C1NCCCCCCn2cc(cn2)S(=O)(=O)N2CCC(CC2)Nc2cc([nH]n2)[C@H]2CC[C@H](C2)O1 [Compound 97, (1^1S,1^3R,2^4Z,6^4E)-2^1H,6^1H-15-oxa-5-thia-3,13-diaza-4(4,1)-piperidina-2(5,3),6(4,1)-dipyrazola-1(1,3)-cyclopentanacyclopentadecaphan-14-one 5,5-dioxide]
CDK2/CyclinA2
  Ki: < 0.001 µM
  CDK2/CCNA2 AQT10xKm Ki: CDK2/A2 Selectivity over CDK1/B1: A (A>10)
  CDK2/CCNA2 AQT10xKm Ki: CDK2/A2 Selectivity over CDK9: A (A>10)
CDK9/CyclinT1
  Ki: 0.025 to 0.1 µM
